From patent US20140288044A1, “COMPOSITIONS AND THERAPEUTIC USES OF IKK-RELATED KINASE EPSILON AND TANKBINDING KINASE 1 INHIBITORS” (Alzheimer's Institute of America, Inc., priority 2011, published 2014)
Read-outs that look alike come from different tables or passages of the source.

Key:
[1] = test system: IKKε-mediated phosphorylation of IRF3; experiment: ELISA for in-situ phosphorylation of IRF3 (phospho-Ser396) in HEK293T cells cotransfected with IRF3 and IKKε; format: cell-based; details: Homo sapiens, HEK-293T, 20 h, HEK293T cells, 20 hours, read-out: IC50, in-situ IKKε-mediated phosphorylation of IRF3
Summary of the method: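 HEK293T cells cotransfected with IRF3 and IKKε were treated with compound for 20 h, and lysates were assayed by ELISA for phospho-Ser396 IRF3, normalized to DMSO. Viability was checked in parallel by CellTiter-Glo. For TBK1, cells cotransfected with IRF7 and TBK1 were treated overnight and probed by Western blot for phospho-Ser477/Ser479 IRF7.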

IKKε = biological target: T1, IKKε (Homo sapiens, UniProt Q14164); experiment: In-vitro IKKε kinase assay (radiolabelled ATP, filterplate); format: biochemical
T1 construct: His-tag (in-house Sf9 preparation) or GST-tag (purchased Invitrogen preparation); these are alternatives, not both on one protein; host or cells: Sf9 cells
T1 sequence (Q14164 1-716): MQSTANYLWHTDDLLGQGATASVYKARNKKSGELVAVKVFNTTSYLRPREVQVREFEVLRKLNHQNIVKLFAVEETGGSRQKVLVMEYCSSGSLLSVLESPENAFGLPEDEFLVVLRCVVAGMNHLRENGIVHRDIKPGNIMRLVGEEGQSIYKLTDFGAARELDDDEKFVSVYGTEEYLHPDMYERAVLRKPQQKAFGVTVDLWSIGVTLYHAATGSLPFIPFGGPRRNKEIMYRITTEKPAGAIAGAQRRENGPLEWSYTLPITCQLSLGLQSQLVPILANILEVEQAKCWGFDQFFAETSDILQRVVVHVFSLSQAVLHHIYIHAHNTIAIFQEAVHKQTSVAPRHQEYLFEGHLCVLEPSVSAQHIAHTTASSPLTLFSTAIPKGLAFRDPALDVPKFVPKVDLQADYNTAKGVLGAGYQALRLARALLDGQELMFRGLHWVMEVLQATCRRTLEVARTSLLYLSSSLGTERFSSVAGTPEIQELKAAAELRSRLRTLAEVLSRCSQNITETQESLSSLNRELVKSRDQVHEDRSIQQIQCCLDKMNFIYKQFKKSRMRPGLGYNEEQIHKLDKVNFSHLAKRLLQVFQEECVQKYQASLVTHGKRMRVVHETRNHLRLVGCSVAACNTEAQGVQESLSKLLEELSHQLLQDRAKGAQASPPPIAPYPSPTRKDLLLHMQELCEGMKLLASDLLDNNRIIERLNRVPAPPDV
Summary of the method: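 His-tagged IKKε from Sf9 cells or GST-tagged IKKε, with myelin basic protein, casein or dephosphorylated casein as substrate and 32 μM ATP (2× Km) plus [γ^33]ATP. "Normal" assay used 0.1 μg/ml enzyme; "sensitized" used 0.015 μg/ml with dephosphorylated casein only. Stopped after 30–45 min with phosphoric acid; P-81 filter counts normalized to DMSO after background subtraction.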

[2] = "sensitized" assay, read-out: IC50, inhibition of the kinase activity of IKKε
[3] = in-vitro IKKε kinase inhibition assays, given as 0.005 μM (5 nM), read-out: IKKε kinase inhibitory activity (IC50 value)

| SMILES | IC50 [1] | IC50 (IKKε; [2]) | IC50 (IKKε; [3]) | IC50 ([1]; range given from about 1 μM to about 250 nM) |
| --- | --- | --- | --- | --- |
| CNC(=O)c1cncc(Nc2nccc(-c3ccc(OC4CCOCC4)c(C#N)c3)n2)c1 [Example Compound 12, 5-({4-[3-Cyano-4-(tetrahydro-2H-pyran-4-yloxy)phenyl]pyrimidin-2-yl}amino)-N-methylpyridine-3-carboxamide] | 1 to 5 µM | < 0.005 µM | < 0.005 µM | – |
| COC1CN(c2cc(Nc3nccc(-c4ccc(OC5CCN(C(=O)CO)CC5)c(C#N)c4)n3)ccn2)C1 [Example Compound 249, 2-{[1-(Hydroxyacetyl)piperidin-4-yl]oxy}-5-(2-{[2-(3-methoxyazetidin-1-yl)pyridin-4-yl]amino}pyrimidin-4-yl)benzonitrile] | < 0.1 µM | < 0.005 µM | – | – |
| CC(c1ccc(Nc2nccc(-c3ccc(OC4CCOCC4)c(C#N)c3)n2)cn1)N1CC(N(C)C)C1 (stereo not drawn) [Example Compound 244, 5-{2-[(6-{1-[3-(Dimethylamino)azetidin-1-yl]ethyl}pyridin-3-yl)amino]pyrimidin-4-yl}-2-(tetrahydro-2H-pyran-4-yloxy)benzonitrile] | < 0.1 µM | < 0.005 µM | – | – |
| N#Cc1cc(-c2ccnc(Nc3ccc(C(=O)N4CCCC4)nc3)n2)ccc1OC1CCOCC1 [Example Compound 29, 5-(2-{[6-(Pyrrolidin-1-ylcarbonyl)pyridin-3-yl]amino}pyrimidin-4-yl)-2-(tetrahydro-2H-pyran-4-yloxy)benzonitrile] | 0.1 to 0.25 µM | < 0.005 µM | < 0.005 µM | – |
| COCCNCc1cncc(Nc2nccc(-c3ccc(OC4CCOCC4)c(C#N)c3)n2)c1 [Example Compound 184, 5-{2-[(5-{[(2-Methoxyethyl)amino]methyl}pyridin-3-yl)amino]pyrimidin-4-yl}-2-(tetrahydro-2H-pyran-4-yloxy)benzonitrile] | 0.1 to 0.25 µM | < 0.005 µM | – | – |
| CC(c1ccc(Nc2nccc(-c3ccc(OC4CCOCC4)c(C#N)c3)n2)cn1)N1CCOCC1 (stereo not drawn) [Example Compound 252, 5-[2-({6-[1-(Morpholin-4-yl)ethyl]pyridin-3-yl}amino)pyrimidin-4-yl]-2-(tetrahydro-2H-pyran-4-yloxy)benzonitrile] | < 0.1 µM | < 0.005 µM | – | – |
| CC(=O)c1ccc(Nc2nccc(-c3ccc(OC4CCOCC4)c(C#N)c3)n2)cn1 [Example Compound 212, 5-{2-[(6-Acetylpyridin-3-yl)amino]pyrimidin-4-yl}-2-(tetrahydro-2H-pyran-4-yloxy)benzonitrile] | < 0.1 µM | < 0.005 µM | – | – |
| Cc1cc(Nc2nccc(-c3ccc(O[C@@H]4CCN(C(=O)CO)C4)c(C#N)c3)n2)ccn1 [Example Compound 123, 2-{[(3R)-1-(Hydroxyacetyl)pyrrolidin-3-yl]oxy}-5-{2-[(2-methylpyridin-4-yl)amino]pyrimidin-4-yl}benzonitrile] | – | – | < 0.005 µM | 0.25 to 1 µM |
| CN(CCS(C)(=O)=O)Cc1ccc(Nc2nccc(-c3ccc(OC4CCOCC4)c(C#N)c3)n2)cn1 [Example Compound 54, 5-(2-{[6-({Methyl[2-(methylsulfonyl)ethyl]amino}methyl)pyridin-3-yl]amino}pyrimidin-4-yl)-2-(tetrahydro-2H-pyran-4-yloxy)benzonitrile] | 0.1 to 0.25 µM | – | < 0.005 µM | – |
| N#Cc1cc(-c2ccnc(Nc3ccc(-c4cn[nH]c4)nc3)n2)ccc1OC1CCOCC1 [Example Compound 78, 5-(2-{[6-(1H-Pyrazol-4-yl)pyridin-3-yl]amino}pyrimidin-4-yl)-2-(tetrahydro-2H-pyran-4-yloxy)benzonitrile] | < 0.1 µM | – | < 0.005 µM | – |
| CC(O)c1ccc(Nc2nccc(-c3ccc(OC4CCOCC4)c(C#N)c3)n2)cn1 (stereo not drawn) [Example Compound 231, 5-(2-{[6-(1-Hydroxyethyl)pyridin-3-yl]amino}pyrimidin-4-yl)-2-(tetrahydro-2H-pyran-4-yloxy)benzonitrile] | 0.1 to 0.25 µM | < 0.005 µM | – | – |
